The text below walks through data of US20230190611A1, “PERSONAL CARE COMPOSITIONS COMPRISING A METAL PIROCTONE COMPLEX” (Conopco, Inc., d/b/a UNILEVER, priority 2020, published 2023).

The nature of series [1]: Solubility of metal piroctone complexes in 5 wt% aqueous SLES 1EO solution. Particulars: 1% sample in 5 wt% aqueous solution of SLES 1EO at 20° C. The series is classed as physicochemical. As to the method: The solubility of metal piroctone complexes at 20° C. in a 5 wt% aqueous solution of SLES 1EO (sodium lauryl ether sulfate) Is listed in Table 1: […]
Series [2] is described as follows: UV stability of ethanolic solutions. As to conditions: 5 hours of UV irradiation (UVA 180 uW/cm2, UVB210 uW/cm2). The series is classed as physicochemical. As to the method:
The UV stability of an ethanolic solutions (0.5 mM) of copper piroctone and manganese piroctone were measured and compared with a solution of Octopirox 1 mM solution.

For the molecule `Cc1cc(CC(C)CC(C)(C)C)n([O-])c(=O)c1.Cc1cc(CC(C)CC(C)(C)C)n([O-])c(=O)c1.[Cu+2]` (stereo not shown) [1% Cu—PIR, Copper bis-piroctone], in series [1], the “% Solubility” value was found to be 1.3%. Besides, in series [2] (ethanolic solution 0.5 mM), the “degraded after UV irradiation” value is given as 1.8%.

Consider `Cc1cc(CC(C)CC(C)(C)C)n([O-])c(=O)c1.Cc1cc(CC(C)CC(C)(C)C)n([O-])c(=O)c1.[Mn+2]` (stereo not shown) [1% Mn—PIR, Manganese bis-piroctone], for which the “% Solubility” value in series [1] is listed as 1.0%. The “degraded after UV irradiation” value in series [2] (ethanolic solution 0.5 mM) worked out at 3.2%. For the molecule `Cc1cc(CC(C)CC(C)(C)C)n([O-])c(=O)c1.Cc1cc(CC(C)CC(C)(C)C)n([O-])c(=O)c1.[Zn+2]` (stereo not shown) [1% Zn—PIR, Zinc bis-piroctone, reference compound], in series [1], the “% Solubility” value was found to be 111.8%. Regarding `Cc1cc(CC(C)CC(C)(C)C)n(O)c(=O)c1.NCCO` (stereo not shown) [1% OCT, piroctone olamine, reference compound], the “% Solubility” value in series [1] is recorded as 100.2%. For the same molecule, the “degraded after UV irradiation” value in series [2] (1 mM solution) was found to be 46%.
